Measured values taken from patent US20140370594A1, “BIOLOGICAL CONVERSION OF BIOMASS-DERIVED SUGARS TO VALUE ADDED CHEMICALS” (WISCONSIN ALUMNI RESEARCH FOUNDATION, priority 2013, published 2014).

Experiments:
E. coli = assay: Growth in minimal media supplemented with GVL, aerobic (FIGS. 9-13); type: cell-based, Escherichia coli; settings: GVL concentrations of about 2% (wt/vol) and less, minimal medium
Procedure: Overnight cultures of E. coli were started from single colonies picked into LB (5 mL) and incubated at 37° C. […] with 250 rpm shaking. The overnight cultures were used to inoculate test media (2 mL) to an OD600 (optical density at 600 nm) of 0.01. These cultures were then incubated as described below. The final OD600 of each culture was measured after 24 hours of incubation.
(§1) Test media for E. coli and P. putida were made using MOPS minimal salts and either varying the weight percent of NaCl and GVL or varying dilutions of the aqueous product stream in water. L. casei test media were made using Chemically Defined Media for L. casei and yeast aerobic test media were made with Yeast Nitrogen Base (6.7 g/L; Difco, a wholly owned subsidiary of Becton Dickinson and Company, Franklin Lakes, N.J.). Yeast anaerobic media were made with Yeast Nitrogen Base and supplemented with Tween 80 (0.4 wt %) and amino acids (50 mg/L).
(§2) The next step was to investigate the sensitivity of various microorganisms to salt concentration and GVL concentration. This was accomplished by measuring the growth of E. coli and yeasts in minimal media supplemented with known concentrations of GVL or NaCl under aerobic conditions. The results are depicted in FIGS. 9 through 13. FIG. 9 depicts the growth characteristics of E. coli TY05 in response to increasing concentrations of GVL. […]

yeast = assay: as above; type: cell-based; settings: GVL concentrations of about 2% (wt/vol) and less, minimal medium
Procedure: Yeast cultures were picked from single colonies and grown aerobically overnight in rich YPD broth (5 mL) (Sigma-Aldrich, St. Louis, Mo.) at 30° C. and 250 rpm. The yeast tested were Saccharomyces cerevisiae PE2 (Lallemand, Inc., Montreal, Quebec, Canada; see also Silva-Filho E A, Melo H F, Antunes D F, Santos S K B, Resende A M, Simões D A, Morais M A Jr, “Isolation by genetic and physiological characteristics of a fuel-ethanol fermentative Saccharomyces cerevisiae strain with potential for genetic manipulation,” J Ind Microbiol Biotechnol 2005, 32:481-486), Spathaspora passalidarum NN245 (ARS Culture Collection, NRRL Y-50740), Scheffersomyces stipitis 7124 (ATCC® 58376), and Scheffersomyces stipitis 6054 (ATCC® 58785).
For the aerobic test media growth experiments, an overnight culture was used to inoculate test media (2 mL) to an OD600 of 0.01. The test cultures were then incubated for 40 hours under the same conditions. A final OD600 was measured after the 40-hour incubation period.
Test media for E. coli and P. putida were made using MOPS minimal salts and either varying the weight percent of NaCl and GVL or varying dilutions of the aqueous product stream in water. […]

E. coli and yeasts = assay: Sensitivity of growth to GVL versus NaCl concentration (FIGS. 9-13); type: cell-based; settings: minimal media supplemented with GVL or NaCl, aerobic
Excerpt: as §1
as §2, with “GVL. FIG. 10 depicts the growth characteristics of S. cerevisiae in response to increasing concentrations of GVL. FIG. 11 depicts the growth characteristics of S. cerevisiae PE2 in response to increasing concentrations of NaCl. FIG. 12 depicts the growth characteristics of S. passalidarum NN245 in response to increasing NaCl concentration.” for “GVL.”

With `CC1CCC(=O)O1` (stereo not drawn) [GVL, gamma-valerolactone] the “growth in the presence of GVL” value (E. coli) was “very significant growth”, the “growth in the presence of GVL” value (yeast) was “very significant growth” and the “impact of concentration on cell growth as compared to NaCl” value (E. coli and yeasts) was “stronger impact on cell growth”.
